Assay results: patent publication US4370339A, “Method for treating inflammatory conditions” (Abbott Laboratories, priority 1981, dated 1983)

Columns and labels:
rats = assay: toxicity, fatality ratio in rats; type: in vivo; conditions: for Fatality Ratio: rats
Method: The lesser toxicity of the 1-alkaryl derivatives is illustrated by the data of Table 3, which gives the fatality ratio in rats when the compounds were administered in the indicated dosages.

[1] = tested on: reverse passive Arthus reaction; assay: reverse passive Arthus reaction in the rat; type: in vivo, rat (male Sprague-Dawley); conditions: oral, 100 mg/kg of body weight; lesion measured 4 h after anti-B.S.A.; groups of 4 rats
Description: The anti-inflammatory activity of the compounds used in the invention was established using the reverse passive Arthus reaction in the rat as described by G. W. Carter and R. A. Krause in Federation Proceedings, Vol. 35, page 774, 1976. Although the carrageenin rat paw edema test (Winter et al., Proc. Soc. Exp. Biol. Med., 111, 554, 1962) can also be used to establish anti-inflammatory activity, the Arthus reaction, unlike carrageenin induced edema, is a well-characterized immune reaction which bears close resemblance to the pathogenesis of rheumatoid arthritis.
The Arthus reaction represents one of the oldest and best studied models of immunological injury. It is produced by the injection of antigen locally into a hyperimmunized animal or by the injection of a small amount of antibody into the skin of an animal that has just previously been given a large amount of soluble antigen intravenously. In both cases, the antigen and antibody become deposited in the walls of small venules. Plasma complement is rapidly bound and activated. […]
Thirty minutes after administration of the drug, each animal is injected intradermally with 0.05 ml of 1.44% anti-B.S.A. into the dorsal skin. […] Two perpendicular diameters of each lesion are measured. […]

carrageenin pleurisy = assay: modification of the carrageenin pleurisy assay; type: in vivo
Description: Also tested for comparison was phenylbutazone, a compound known to have anti-inflammatory activity.

Compound: NC1=NN(c2cccc(C(F)(F)F)c2)CC1 [1-(m-trifluoromethylphenyl)-3-amino-2-pyrazoline, reference compound]
- Fatality Ratio (rats; 285 mg/kg): 8/10

Compound: O=C1CCN(Cc2ccccc2)N1 [1-benzyl-3-pyrazolidinone, reference compound]
- % Inhibition Of Lesion [1]: 28%

Compound: CCCCC1C(=O)N(c2ccccc2)N(c2ccccc2)C1=O [phenylbutazone, reference compound]
- % Inhibition Cells (carrageenin pleurisy; 100 mg/kg): 13%
- % Inhibition Volume Exudate (carrageenin pleurisy; 100 mg/kg): 59%

Compound: NC1=NN(Cc2ccccc2)CC1 [1-benzyl-3-amino-2-pyrazoline]
- Fatality Ratio (rats; 512 mg/kg): 0/10
- toxicity relative to 1-aryl derivatives, in words (rats; compared with 1-aryl derivatives of 3-amino-2-pyrazoline): markedly less toxic
- % Inhibition Cells (carrageenin pleurisy; 120 mg/kg): 55%
- % Inhibition Volume Exudate (carrageenin pleurisy; 120 mg/kg): 76%
- % Inhibition Of Lesion [1]: 57%
